In paper PMC10518717, “High-Throughput Screening and Proteomic Characterization of Compounds Targeting Myeloid-Derived Suppressor Cells” (Molecular & Cellular Proteomics : MCP, 2023):
Read-outs that look alike come from different tables or passages of the source.

System: NUP-MDSC
Experiment: Secondary mouse MDSC screen (dose-dependent; IFNγ secretion and T cell proliferation)
Format: cell-based
Conditions: for EC50: Mus musculus, NUP-MDSC/CD8+ T cell coculture; for activity in the NUP-MDSC assay (proliferation and INFγ secretion of mouse CD8+ T cells): dose-dependent confirmation screen
Method: Compound source plates (REMP-PP#180030) were pre-prepared by adding 500 nl compound solution (5 mmol/l starting concentration) and 11.5 μl Hepes (20 mmol/l) buffer to achieve a final ready to screen concentration of 0.2 mmol/l. Cocultured cell assay plates were prepared by dispensing 20 μl of differentiated MDSC cells (12,500 cells/cavity) and 20 μl of CD8+ T-cells with a MultidropCombi (12,500 cells/cavity). In the next step, 2 μl of pre-prepared compound solution was transferred via BC i5 to the cell plate followed by 3days incubation at 37 °C and 5% CO2. Afterward, the supernatant in cell plates were homogenized via orbital shaking at 2000 rpm for 20s and centrifugated with 1650 rpm for 30 s. On a BC i5 pipetting robot, 2 μl supernatant were transferred to a pre-filled (30 μl PBS) assay plate followed by centrifugation and addition of 8 μl IFNγ HTRF detection kit, followed by orbital mixing at 2000 rpm for 20s and an incubation step for 3 days at 37 °C and 5% CO2. Assay plate was analyzed on an PE Envision. Cell plates were centrifuged in parallel with 300g for 60 s and orbital mixed at 2000 rpm for 20 s followed by proliferation analysis via Sartorius IQue2. Effects were normalized against stimulator control mIL-2 and 0.2% dimethyl sulfoxide (DMSO) as neutral control. A hit was defined as a compound with >50% effect in at least one of the measured effects.
Compound source plates (REMP-PP#180030) for dose-dependent secondary screens were pre-prepared by adding […] compound solution (1.0E + 01 mmol/l, 3.2E + 00 mmol/l, 1.0E + 00 mmol/l, 3.2E-01 mmol/l, 1.0E-01 mmol/l, 3.2E-02 mmol/l, 1.0E-02 mmol/l, 3.2E-03 mmol/l, 1.0E-03 mmol/l, 3.2E-04 mmol/l; starting concentration) and 12 μl Hepes (20 mM) buffer to achieve a final ready to screen concentration of 4.0E-02 mmol/l, 1.3E-02 mmol/l, 4.0E-03 mmol/l, 1.3E-03 mmol/l, 4.0E-04 mmol/l, 1.3E-04 mmol/l, 4.0E-05 mmol/l, 1.3E-05 mmol/l, 4.0E-06 mmol/l, and 1.3E-06 mmol/l. All other steps are identical to the described workflow under “Primary mouse MDSC screen”.
After confirming the physiological and pharmacological suitability of the NUP-MDSC model, we developed a high-throughput screen for the identification of potential MDSC modulators (Fig. 4A and supplemental Fig. S3). To accomplish this, mouse NUP-MDSC were generated as described before, co-cultured with freshly isolated mouse CD8+ T cells, which were activated with anti-CD3/anti-CD28 antibodies, and subsequently treated with compounds or DMSO vehicle (supplemental Fig. S4A). After 72 h, T cell activity was assessed by recording T cell proliferation and IFN-γ secretion. […] Compounds were declared hits if reversing the suppression effect of NUP-MDSC on T cells with ≥50% in either readout resulting in 392 hit compounds (Fig. 4B). […]

| SMILES | EC50 (Fig. 4D, read-out: T cell proliferation EC50) [µM] | EC50 (read-out: EC50, based on INFγ secretion of secondary mouse screen) [µM] | activity in the NUP-MDSC assay (proliferation and INFγ secretion of mouse CD8+ T cells) |
| --- | --- | --- | --- |
| CCOC(=O)c1nnn(-c2nn3nnnc3c3ccccc23)c1C [compound 2] | 6.5 | 2.6 | rescued the proliferation and INFγ secretion |
| c1ccc2c(c1)c(-n1ccnc1)nn1nnnc21 [compound 3] |  |  | inactive |
